Source: patent publication US20230321251A1, “LIPOSOME FORMULATION CONTAINING ANTIBACTERIAL AGENT” (priority 2020, published 2023)
≈ marks a conversion by molar mass, not a printed value.

Columns and labels:
[1] = system: 2% red blood cell suspension (defibrated sheep blood); test: In vitro hemolysis test; assay type: cell-based; conditions: sheep red blood cells, 24 hours incubation
Method: Hemolysis rates of the compound A drug substance and the liposome formulation of Example 2 were evaluated by the following methods.
A 10 mM concentration solution of each test substance was prepared using a 5% sugar solution as a solvent, and 12 types of formulation solutions were prepared for each test substance up to 0.0049 mM by 2-fold serial dilution. Using 20% FBS-supplemented M-199 medium (With Earle's salts, sodium bicarbonate and 25 mM HEPES, supplement with 0.1 g/L L-glutamine) as a medium, a 2% red blood cell suspension (defibrated sheep blood) was prepared and mixed with a solvent or each test substance formulation solution (n=2). […] A mixed solution of the solvent or each test substance formulation solution and the red blood cell suspension or the medium was incubated for 24 hours, then the supernatant was collected, and an absorbance at 540 nm was measured. At the stage of completion of each incubation, an absorbance of the solvent and the red blood cell suspension, and an absorbance of the solvent and the medium were set to a reference of “hemolysis rate 0%”, and an absorbance of the 100% hemolysis solution was set to a reference of “100% hemolysis”, and a hemolysis rate by mixing and incubating each test substance formulation solution and the red blood cell suspension was calculated by the following calculation formula. […]

[2] = In vitro cytotoxicity test (resazurin); assay type: cell-based; conditions: African green monkey, Vero cells, 72 hours culture
Method: Vero cells (final concentration: 2.0×10 to the power of 4 cells/well) cultured in advance and each test substance were added to 96 wells, and cultured for 72 hours under conditions of 5% CO2 and 37° C. Thereafter, 10 μl/well of a 0.01% resazurin solution was added, and after mixing, the cells were cultured under conditions of 5% CO2 and 37° C. for 4 hours, and then a fluorescence value (Ex 531 nm/Em 590 nm) was measured using a microplate reader.

S. aureus ATCC700787 = test: In vitro antibacterial activity (MIC), agar plate dilution; assay type: cell-based, Staphylococcus aureus; conditions: Staphylococcus aureus, ATCC700787, read-out: minimum inhibitory concentration (MIC)
Method: (§1) A minimum inhibitory concentration was measured as in vitro antibacterial activity. The minimum inhibitory concentration (MIC: μg/ml) was measured according to the standard method of Japanese Society of Chemotherapy, by an agar plate dilution method using 1000 cfu/spot as an inoculum amount and a susceptibility disk medium as a test medium.
(§2) In the tables, a unit of a numerical value of inhibitory activity is μg/ml. In addition, in the tables, S. aureus represents Staphylococcus aureus and E. faecalis represents Gram-positive group D streptococci (enterococci) that are resident in a normal bacterial flora of a human intestinal tract, and can be causative bacteria of endocarditis and the like after surgery.

S. aureus VRS1 = test: as above; assay type: cell-based, Staphylococcus aureus; conditions: Staphylococcus aureus, VRS1, read-out: minimum inhibitory concentration (MIC), S. aureus VRS1, 1000 cfu/spot
Method: as §1, §2

S. aureus ATCC25923 = test: as above; assay type: cell-based, Staphylococcus aureus; conditions: Staphylococcus aureus, ATCC25923, read-out: minimum inhibitory concentration (MIC), S. aureus ATCC25923, 1000 cfu/spot
Method: as §1, §2

E. faecalis SR7914 = test: as above; assay type: cell-based; conditions: Enterococcus faecalis, SR7914, read-out: minimum inhibitory concentration (MIC), E. faecalis SR7914, 1000 cfu/spot
Method: as §1, §2

E. faecium SR7940 = test: as above; assay type: cell-based; conditions: Enterococcus faecium, SR7940, read-out: minimum inhibitory concentration (MIC), E. faecium SR7940, 1000 cfu/spot
Method: as §1, §2

E. faecalis SR1004 = test: as above; assay type: cell-based; conditions: Enterococcus faecalis, SR1004, read-out: minimum inhibitory concentration (MIC), E. faecalis SR1004, 1000 cfu/spot
Method: as §1, §2

E. faecium SRM1101 = test: as above; assay type: cell-based; conditions: Enterococcus faecium, SRM1101, read-out: minimum inhibitory concentration (MIC)
Method: as §1, §2

S. aureus SR3637 = test: as above; assay type: cell-based; conditions: Staphylococcus aureus, SR3637, read-out: minimum inhibitory concentration (MIC), S. aureus SR3637, 1000 cfu/spot
Method: as §1, §2

SMILES: CN[C@H](CC(C)C)C(=O)NC1C(=O)N[C@@H](CC(N)=O)C(=O)N[C@H]2C(=O)N[C@H]3C(=O)N[C@H](C(=O)N[C@@H](C(=O)O)c4cc(O)cc(O)c4-c4cc3ccc4O)[C@H](O[C@H]3C[C@](C)(N)[C@@H](O)[C@H](C)O3)c3ccc(c(Cl)c3)Oc3cc2cc(c3O[C@@H]2O[C@H](CO)[C@@H](O[C@@H]3O[C@H](CNCc4ccc(-c5ccc(Cl)cc5)s4)[C@H](O)[C@H](O)[C@H]3O)[C@H](O)[C@H]2O)Oc2ccc(cc2Cl)[C@H]1O (stereo partly shown) [Compound A drug substance]
- Hemolysis rate [1]: 34%
- CC50 at 72 h [2]: 128 µg/mL (≈ 70.4 µM)
- MIC (S. aureus ATCC700787): 2 µg/mL (≈ 1.1 µM)
- MIC (S. aureus VRS1): 4 µg/mL (≈ 2.2 µM)
- MIC (S. aureus ATCC25923): 1 µg/mL (≈ 0.55 µM)
- MIC (E. faecalis SR7914): 2 µg/mL (≈ 1.1 µM)
- MIC (E. faecium SR7940): 2 µg/mL (≈ 1.1 µM)
- MIC (E. faecalis SR1004): 0.5 µg/mL (≈ 0.275 µM)
- MIC (E. faecium SRM1101): 2 µg/mL (≈ 1.1 µM)
- MIC (S. aureus SR3637): 1 µg/mL (≈ 0.55 µM)
